From patent publication US6831104B2, “Insect pest eradication system” (priority 2000, dated 2004)
Where two headings read alike, the source gives them in different places.

What was measured:
active fire ant colonies = assay: Test 7: methanol alone; trans-dichloroethylene/methanol solution then Diazinon solution; type: in vivo, Red Fire Ant; details: for fire ant activity upon surface of mound: upon wetting first mound (about 5 inches) with the alcohol alone
Description: In the seventh test, active fire ant colonies were treated with methanol and then with a mixture of methanol plus trans-dichloroethylene. Additionally, an aqueous Diazinon® solution was applied to a targeted mound following application of the latter mixture. First, an active fire ant mound, approximately 5 inches in diameter, was treated with enough methanol to wet the surface of the mound. […] Then a solution of three parts methanol to one part trans-dichloroethylene was applied to the surface of a second fire ant mound approximately 8 inches in diameter. […] After five minutes, the second mound was pierced in several places with a steel shaft. A Diazinon® solution was then applied to the mound. At no time were ants observed exiting the second mound.

live fire ant colony [1] = details: in vivo
live fire ant colony [2] = assay: Test 8: ethanol and water; trans-dichloroethylene/ethanol solution then Diazinon solution; design: species or system Red Fire Ant; details: in vivo
Excerpt: In eighth and ninth tests, the method of the seventh test was duplicated using two other alcohols, namely ethanol and isopropanol.

fire ant colony = assay: Test 1: trans-dichloroethylene/vegetable oil mixture poured on fire ant colony in 2-gallon flowerpot; type: in vivo, Red Fire Ant
Description: These tests were conducted on active fire ant mounds located primarily upon an acre tract of residential property in Lake Charles, La.
In the first test, a mixture of 1 part trans-dichloroethylene to 2 parts vegetable oil (liquid Crisco® brand vegetable oil) was used. A fire ant colony that had established itself within a 2-gallon flowerpot was treated with approximately 1 cup of a trans-dichloroethylene/vegetable oil mixture. The technique involved pouring the liquid mixture onto the surface of the targeted fire ant mound. Observations of fire ant activity were made upon application and following application of the mixture. Afterward, the contents of the infested flower pot were emptied upon a flat, ply-wood surface and dissected. The following results of individual fire ant activity within the treated soil were observed: […]

active fire ant mound = assay: General experimental method: knockout agent mixture then insecticide on fire ant mound, excavation of plugs; type: in vivo, Red Fire Ant; details: applied superficially to a fire ant mound
Excerpt: The experimental method used herein entailed first preparing a mixture of 1 part trans-dichloroethylene (knockout agent) and 2 parts vegetable oil (liquid Crisco® was the vegetable oil most often used in the test) and then applying the mixture to the surface of an active fire ant mound 12 inches or less in surface diameter. The oil with the knockout agent is preferably biodegradable and miscible with the knockout agent. Units of measure are in pints, with the mixture comprising approximately ½ pint trans-dichloroethylene for every pint of vegetable oil. Approximately one-quarter (¼) pint of the trans-dichloroethylene/vegetable oil mixture was applied to a fire-ant hill about 12-inches in surface diameter.
The next step entailed applying a suitable insecticide to the fire ant mound. The insecticide was a commercially available Diazinon® applied one of two forms onto a fire ant mound that had been treated with the trans-dichloroethylene mixture. […]
Following all of these tests, the targeted fire ant colonies were excavated in the form of plugs. These “plugs” of excavated earth that had comprised the fire ant colony measured about 12″×12″×12. […] Hundreds, if not thousands, of dead individual worker ants, dead ant larvae and eggs were detected. […]

## CO [methanol]
Active fire ant colonies; in vivo
  knock out of fire ants within a targeted mound (conclusion): does not serve to knockout fire ants
Active fire ant colonies
  fire ant activity upon surface of mound: observed exiting the mound
Active fire ant colonies; listed as pure ethanol
  fire ant activity upon surface of mound: Significant fire ant activity

## CC(C)O [anhydrous isopropanol, isopropanol]
Live fire ant colony [1]
  knock out of fire ants within a targeted mound (conclusion): neither serves to knock out fire ants

## CCO [anhydrous ethanol, ethanol]
Live fire ant colony [2]
  knock out of fire ants within a targeted mound (conclusion): neither serves to knock out fire ants

## Cl/C=C/Cl [trans-dichloroethylene]
Fire ant colony; small dosages, short periods of exposure
  toxicity to fire ants (conclusion): not itself toxic to fire ants
Fire ant colony; treated soil exposed to the open air
  evaporation from treated soil: rapidly evaporates
Active fire ant mound
  incapacitation of individual insects in targeted fire ant mound: completely incapacitated
